# Measurements published in US10370333B2 (Sanford Burnham Prebys Medical Discovery Institute, priority 2012, dated 2019).
# Target: TNAP (Homo sapiens (Human), UniProt P05186)
# Assay: TNAP (PPi) inhibition assay, pyrophosphate as substrate
# Type: biochemical
# In short: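 Enzyme source was conditioned serum-free medium from COS-1 cells transiently expressing tagged human TNAP, dialyzed against TBS with MgCl2/ZnCl2. Activity on natural substrate PPi at pH 7.4 read as liberated phosphate (Biomol Green).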
row,IC50 [µM],Compound
1,< 0.1,"COc1ccccc1-c1cncc(NS(=O)(=O)c2cc(Br)ccc2OC)c1 [Example III-35, 5-Bromo-2-methoxy-N-[5-(2-methoxy-phenyl)-pyridin-3-yl]-benzenesulfonamide]"
2,< 0.1,"COc1ccc(Cl)cc1S(=O)(=O)Nc1cncc(-c2ccc(F)cc2)c1 [Example III-18, 5-Chloro-N-[5-(4-fluoro-phenyl)-pyridin-3-yl]-2-methoxy-benzenesulfonamide]"
3,< 0.1,"COc1cccc(-c2cncc(NS(=O)(=O)c3cc(OC)ccc3OC)c2)c1 [Example III-46, 2,5-Dimethoxy-N-[5-(3-methoxy-phenyl)-pyridin-3-yl]-benzenesulfonamide]"
4,> 1,"COC(=O)c1cncc(N(C)S(=O)(=O)c2cc(OC)ccc2OC(F)(F)F)c1 [Example XII-23, 5-[(5-Methoxy-2-trifluoromethoxy-benzenesulfonyl)-methyl-amino]-nicotinic Acid Methyl Ester]"
5,0.1 to 1,"COc1ccc(OC)c(S(=O)(=O)Nc2cncc(-c3cccc(C)c3)c2)c1 [Example III-49, 2,5-Dimethoxy-N-(5-m-tolyl-pyridin-3-yl)-benzenesulfonamide]"
6,> 1,"COc1ccc(OC)c(S(=O)(=O)Nc2ccc(N3CCOCC3)nc2)c1 [Example VIII-2, 2,5-Dimethoxy-N-(6-morpholinopyridin-3-yl)benzenesulfonamide]"
7,< 0.1,"COc1ccc(OC)c(S(=O)(=O)Nc2cncc(-c3nccs3)c2)c1 [Example III-79, 2,5-Dimethoxy-N-(5-(thiazol-2-yl)pyridin-3-yl)benzenesulfonamide]"
8,< 0.1,"COc1ccc(Cl)cc1S(=O)(=O)Nc1cncc(-c2ccccn2)c1 [Example III-60, N-([2,3′-Bipyridin]-5′-yl)-5-chloro-2-methoxybenzenesulfonamide]"
9,< 0.1,"COc1ccc(Br)cc1S(=O)(=O)Nc1cncc(-c2ccccc2Cl)c1 [Example III-41, 5-Bromo-N-[5-(2-chloro-phenyl)-pyridin-3-yl]-2-methoxy-benzenesulfonamide]"
10,> 1,"COc1ccc(Br)cc1S(=O)(=O)Nc1ccc(N2CCN(C)CC2)nc1 [Example VIII-19, 5-Bromo-2-methoxy-N-[6-(4-methyl-piperazin-1-yl)-pyridin-3-yl]-benzenesulfonamide]"
11,< 0.1,"COc1ccc(Cl)cc1S(=O)(=O)Nc1cncc(-c2ccc(C#N)cc2)c1 [Example III-33, 5-Chloro-N-(5-(4-cyanophenyl)pyridin-3-yl)-2-methoxybenzenesulfonamide]"
12,< 0.1,"COc1ccc(Br)cc1S(=O)(=O)Nc1cncc(-c2nccs2)c1 [Example III-80, 5-Bromo-2-methoxy-N-(5-(thiazol-2-yl)pyridin-3-yl)benzenesulfonamide]"
13,0.1 to 1,"COc1ccc(Cl)cc1S(=O)(=O)Nc1cncc(-c2ccc(OCc3ccccc3)cc2)c1 [Example III-6, N-(5-(4-(benzyloxy)phenyl)pyridin-3-yl)-5-chloro-2-methoxybenzenesulfonamide]"
14,> 1,"COc1ccc(Br)cc1S(=O)(=O)Nc1ccc(NCCN(C)C)nc1 [Example VIII-13, 5-Bromo-N-(6-((2-(dimethylamino)ethyl)amino)pyridin-3-yl)-2-methoxybenzenesulfonamide]"
15,< 0.1,"COc1ccc(Cl)cc1S(=O)(=O)Nc1cncc(-c2ccsc2)c1 [Example III-78, 5-Chloro-2-methoxy-N-(5-(thiophen-3-yl)pyridin-3-yl)benzenesulfonamide]"
16,< 0.1,"COc1ccc(Cl)cc1S(=O)(=O)Nc1cncc(-c2ccoc2)c1 [Example III-72, 5-Chloro-N-(5-(furan-3-yl)pyridin-3-yl)-2-methoxybenzenesulfonamide]"

# Continued, compound first:
row,Compound,IC50 [µM]
1,"CCCNC(=O)c1cncc(NS(=O)(=O)c2cc(Cl)ccc2OC(F)(F)F)c1 [Example XII-7, 5-(5-Chloro-2-(trifluoromethoxy)phenylsulfonamido)-N-propylnicotinamide]",> 1
2,"COc1ccc(C(=O)N2CCOCC2)cc1S(=O)(=O)Nc1cnc2ccccc2c1 [Example II-23, 2-Methoxy-5-(morpholine-4-carbonyl)-N-quinolin-3-yl-benzenesulfonamide]",0.1 to 1
3,"COc1ccc(OC)c(S(=O)(=O)Nc2ncco2)c1 [Example V-4, 2,5-Dimethoxy-N-oxazol-2-yl-benzenesulfonamide]",> 1
4,"COc1ccc(OC)c(S(=O)(=O)Nc2cc[nH]n2)c1 [Example V-8, 2,5-Dimethoxy-N-(1H-pyrazol-3-yl)-benzenesulfonamide]",> 1
5,"CCNC(=O)c1ccc(OC)c(S(=O)(=O)Nc2cccnc2)c1 [Example I-17, N-Ethyl-4-methoxy-3-(pyridin-3-ylsulfamoyl)-benzamide]",> 1
6,"CCCNC(=O)c1ccc(OC)c(S(=O)(=O)Nc2cnc3ccccc3c2)c1 [Example II-17, 4-Methoxy-N-propyl-3-(quinolin-3-ylsulfamoyl)-benzamide]",0.1 to 1
7,"CCNC(=O)c1ccc(OC)c(S(=O)(=O)Nc2cnc3ccccc3c2)c1 [Example II-16, N-Ethyl-4-methoxy-3-(quinolin-3-ylsulfamoyl)-benzamide]",0.1 to 1
8,"COc1ccc(OC(F)(F)F)cc1S(=O)(=O)Nc1cncc(-c2ccco2)c1 [Example XI-13, N-(5-(Furan-2-yl)pyridin-3-yl)-2-methoxy-5-(trifluoromethoxy)benzenesulfonamide]",< 0.1
9,"COc1ccc(Br)cc1S(=O)(=O)Nc1nccs1 [Example V-15, 5-Bromo-2-methoxy-N-thiazol-2-yl-benzenesulfonamide]",> 1
10,"COc1ccc(Br)cc1S(=O)(=O)Nc1ncccn1 [Example V-28, 5-Bromo-2-methoxy-N-pyrimidin-2-yl-benzenesulfonamide]",> 1
11,"CCCNC(=O)c1cncc(NS(=O)(=O)c2cc(Br)ccc2OC)c1 [Example IV-19, 5-(5-Bromo-2-methoxyphenylsulfonamido)-N-propylnicotinamide]",0.1 to 1
12,"O=S(=O)(Nc1cncc(-c2ccccn2)c1)c1cc(Cl)ccc1OC(F)(F)F [Example XI-17, N-([2,3′-Bipyridin]-5′-yl)-5-chloro-2-(trifluoromethoxy)benzenesulfonamide]",0.1 to 1
13,"COc1ccc(Br)cc1S(=O)(=O)Nc1ccnn1C [Example V-11, 5-Bromo-2-methoxy-N-(2-methyl-2H-pyrazol-3-yl)-benzenesulfonamide]",> 1
14,"CCCNC(=O)c1cncc(NS(=O)(=O)c2cc(OC)ccc2OC)c1 [Example IV-38, 5-(2,5-Dimethoxyphenylsulfonamido)-N-propylnicotinamide]",0.1 to 1
15,"COc1ccc(OC)c(S(=O)(=O)Nc2cncc(C(=O)Oc3ccccc3)c2)c1 [Example IV-15, Phenyl 5-(2,5-dimethoxyphenylsulfonamido)nicotinate]",< 0.1
16,"COc1ccc(Br)cc1S(=O)(=O)Nc1ccc(Nc2ccccc2)nc1 [Example VIII-15, 5-Bromo-2-methoxy-N-(6-(phenylamino)pyridin-3-yl)benzenesulfonamide]",> 1

row,Compound,IC50 [µM]
1,COc1ccc(Cl)cc1S(=O)(=O)Nc1cncc(-c2ccc(O)cc2)c1,< 0.1
2,"CCCOC(=O)c1cncc(NS(=O)(=O)c2cc(Cl)ccc2OC)c1 [Example IV-8, Propyl 5-(5-chloro-2-methoxyphenylsulfonamido)nicotinate]",< 0.1
3,"CCCNC(=O)c1ccc(OC)c(S(=O)(=O)Nc2cccnc2)c1 [Example I-18, 4-Methoxy-N-propyl-3-(pyridin-3-ylsulfamoyl)-benzamide]",> 1
4,"COc1ccc(-c2ccoc2)cc1S(=O)(=O)Nc1cnc2ccccc2c1 [Example II-7, 5-Furan-3-yl-2-methoxy-N-quinolin-3-yl-benzenesulfonamide]",0.1 to 1
5,"COc1ccc(Br)cc1S(=O)(=O)Nc1cncc(-c2ccc(Cl)cc2)c1 [Example III-20, 5-Bromo-N-[5-(4-chloro-phenyl)-pyridin-3-yl]-2-methoxy-benzenesulfonamide]",0.1 to 1
6,"COCCNC(=O)c1cncc(NS(=O)(=O)c2cc(OC)ccc2OC)c1 [Example IV-41, 5-(2,5-Dimethoxyphenylsulfonamido)-N-(2-methoxyethyl)nicotinamide]",0.1 to 1
7,"COc1ccc(OC)c(S(=O)(=O)Nc2cncc(C(N)=O)c2)c1 [Example IV-36, 5-(2,5-Dimethoxyphenylsulfonamido)nicotinamide]",0.1 to 1
8,"O=S(=O)(Nc1cncc(-c2ccc(OC(F)(F)F)cc2)c1)c1cc(Br)ccc1OC(F)(F)F [Example XI-4, 5-Bromo-2-(trifluoromethoxy)-N-(5-(4-(trifluoromethoxy)phenyl)pyridin-3-yl)benzenesulfonamide]",0.1 to 1
9,"O=S(=O)(Nc1cncc(-c2cccs2)c1)c1cc(Br)ccc1OC(F)(F)F [Example XI-15, 5-Bromo-N-(5-(thiophen-2-yl)pyridin-3-yl)-2-(trifluoromethoxy)benzenesulfonamide]",0.1 to 1
10,"COc1ccc(Br)cc1S(=O)(=O)Nc1cncc(-c2ccc(C(F)(F)F)cc2)c1 [Example III-14, 5-Bromo-2-methoxy-N-(5-(4-(trifluoromethyl)phenyl)pyridin-3-yl)benzenesulfonamide]",0.1 to 1
11,"CCCOC(=O)c1cncc(NS(=O)(=O)c2cc(Br)ccc2OC)c1 [Example IV-3, Propyl 5-(5-bromo-2-methoxyphenylsulfonamido)nicotinate]",< 0.1
12,"CCCNC(=O)c1cncc(NS(=O)(=O)c2cc(Cl)ccc2OC)c1 [Example IV-29, 5-(5-Chloro-2-methoxyphenylsulfonamido)-N-propylnicotinamide]",< 0.1
13,"Cn1cc(-c2cncc(NS(=O)(=O)c3cc(Br)ccc3OC(F)(F)F)c2)cn1 [Example XI-31, 5-Bromo-N-(5-(1-methyl-1H-pyrazol-4-yl)pyridin-3-yl)-2-(trifluoromethoxy)benzenesulfonamide]",< 0.1
14,"COc1ccc(Cl)cc1S(=O)(=O)Nc1cncc(C(=O)NCCN(C)C)c1 [Example IV-33, 5-(5-Chloro-2-methoxyphenylsulfonamido)-N-(2-(dimethylamino)ethyl)nicotinamide]",0.1 to 1
15,"COc1ccc(C(N)=O)cc1S(=O)(=O)Nc1cnc2ccccc2c1 [Example II-14, 4-Methoxy-3-(quinolin-3-ylsulfamoyl)-benzamide]",0.1 to 1
